From patent US20260026504A1, “COMPOUND […] STRUCTURE, APPLICATION, AND INSECTICIDE” (Anhui Shengfeng Biochemical Co., Ltd, priority 2022, published 2026) come the findings set out here.

This assay has as its system diamondback moth (Plutella xylostella) second instar larvae. The assay is described as follows: Toxicity to diamondback moth larvae by the leaf-dipping method. The format is in vivo. Particulars: Plutella xylostella, in Brassica oleracea, foliar, corrected mortality grade, 1 ppm, cabbage leaf dip. As for the experimental part: Determining the toxicity activity of part of compounds on diamondback moth (Plutella xylostella) instar larvae by the leafdipping method.
The test agents of the compounds in Table 2 were weighed out accurately with an electronic analytical balance, and the original drug was dissolved in a 10000 ppm solution with dimethyl sulfoxide as the solvent and then diluted with 0.1% of Triton solution to 1 ppm and 0.25 ppm solutions. Taking the cabbage not contacted with the liquid medicine, and cutting the leaves into 6 cm-diameter circular leaves. Soaking the leaves in the prepared liquid medicine for 15 seconds, taking out and drying, and placing the leaves into 6 cm culture dishes, wherein 1 cabbage leaf is placed in each culture dish. The same standard second instar larvae were placed in petri dishes with 10 heads per dish and 4 replicates per concentration for a total of 40 heads. After inoculation, the culture dish is placed in a constant-temperature culture chamber with the temperature of 25±1° C. and the illumination period of 16 (D) to 8 (L) h, and the number of dead and live larvae is investigated after 48 h and 72 h. A blank and a control of compound K1 and compound K2 were also provided.
The mortality is calculated according to the following formula 1, then the corrected mortality is calculated according to the formula 2, and finally the classification is carried out according to the corrected mortality value and the rating standard shown in the table 2, and the specific results are shown in the tables 3 and 4.
mortality %=(number of dead insects/total number of insects)×100% Equation 1;
corrected mortality %=[(treatment-control mortality)/(1-control mortality)]×100% Equation 2.

Where [1] appears, read: 48 h, 48 h, read-out: mortality (1 ppm) 48 h.
The mark [2] stands for this setting: 72 h, 72 h, read-out: mortality (1 ppm) 72 h.

Read-outs that look alike come from different tables or passages of the source.

Broadly, the mortality is the share of the test organisms that died. As to `C=CCn1cc(NC(=O)c2ccc(C3=NOC(c4cc(Cl)cc(Cl)c4)(C(F)(F)F)C3)cc2C)cn1` (stereo not shown) [Compound 27], the mortality at 1 ppm runs as follows: under setting [1], 50 to 70%; under setting [2], 70 to 80%.
The like results for `Cc1cc(C2=NOC(c3cc(Cl)c(F)c(Cl)c3)(C(F)(F)F)C2)ccc1C(=O)Nc1cnn(C2CCCCC2)c1` (stereo not shown) [Compound 132] were, in that order, 50 to 70% and 100%.
As for `CCC(C)n1cc(NC(=O)c2ccc(C3=NOC(c4cc(Cl)cc(Cl)c4)(C(F)(F)F)C3)cc2C)cn1` (stereo not shown) [Compound 16], the mortality at 1 ppm under setting [2] was 70 to 80%.
For the compound `Cc1cc(C2=NOC(c3cc(Cl)cc(Cl)c3)(C(F)(F)F)C2)ccc1C(=O)Nc1cnn(-c2ccccc2F)c1` (stereo not shown) [Compound 42], the mortality at 1 ppm under setting [2] is 50 to 70%.
Turning to `Cc1cc(C2=NOC(c3cc(Cl)c(F)c(Cl)c3)(C(F)(F)F)C2)ccc1C(=O)Nc1c(C)nn(C)c1C` (stereo not shown) [Compound 160], the mortality at 1 ppm is 50 to 70% under setting [1] and 70 to 80% under setting [2].
The like results for `C#CCn1cc(NC(=O)c2ccc(C3=NOC(c4cc(Cl)cc(Cl)c4)(C(F)(F)F)C3)cc2C)cn1` (stereo not shown) [Compound 28] were, in that order, 80 to 90% and 100%.
On to `Cc1cc(C2=NOC(c3cc(Cl)cc(Cl)c3)(C(F)(F)F)C2)ccc1C(=O)Nc1cnn(CCF)c1` (stereo not shown) [Compound 9], for which the mortality at 1 ppm under setting [2] lay within 80 to 90%.
Still for that read-out and setting: the result for `Cc1cc(C2=NOC(c3cc(Cl)cc(Cl)c3)(C(F)(F)F)C2)ccc1C(=O)Nc1cnn(S(C)(=O)=O)c1` (stereo not shown) [Compound 69] reads 50 to 70%.
With `CCN(CC)C(=O)n1cc(NC(=O)c2ccc(C3=NOC(c4cc(Cl)c(F)c(Cl)c4)(C(F)(F)F)C3)cc2C)cn1` (stereo not shown) [Compound 150], the mortality at 1 ppm is 80 to 90% under setting [1] and 100% under setting [2].
The like results for `Cc1cc(C2=NOC(c3cc(Cl)cc(Cl)c3)(C(F)(F)F)C2)ccc1C(=O)Nc1cnn(CCCF)c1` (stereo not shown) [Compound 11] were, in that order, 50 to 70% and 100%.
As for `Cc1cc(C2=NOC(c3cc(Cl)cc(Cl)c3)(C(F)(F)F)C2)ccc1C(=O)Nc1cnn(C(C)C)c1` (stereo not shown) [Compound 5], the mortality at 1 ppm is, setting by setting: under setting [1], 90 to 100%; under setting [2], 100%.
Take `CCn1cc(NC(=O)c2ccc(C3=NOC(c4cc(Cl)cc(Cl)c4)(C(F)(F)F)C3)cc2C)cn1` (stereo not shown) [Compound 3]: the mortality at 1 ppm is, setting by setting: under setting [1], 70 to 80%; under setting [2], 90 to 100%.
Regarding `CCCn1nc(C)c(NC(=O)c2ccc(C3=NOC(c4cc(Cl)cc(Cl)c4)(C(F)(F)F)C3)cc2C)c1C` (stereo not shown) [Compound 98], the mortality at 1 ppm under setting [2] fell in the range of 50 to 70%.
With `Cc1cc(C2=NOC(c3cc(Cl)cc(Cl)c3)(C(F)(F)F)C2)ccc1C(=O)Nc1cn[nH]c1` (stereo not shown) [Compound 1], the mortality at 1 ppm under setting [1] lay in the range of 50 to 70% and the mortality at 1 ppm under setting [2] was in the range of 70 to 80%.
Consider `Cc1cc(C2=NOC(c3cc(Cl)c(F)c(Cl)c3)(C(F)(F)F)C2)ccc1C(=O)Nc1cnn(Cc2ccccc2)c1` (stereo not shown) [Compound 139], for which the mortality at 1 ppm under setting [2] fell in the range of 50 to 70%.
Turning to `Cc1cc(C2=NOC(c3cc(Cl)c(F)c(Cl)c3)(C(F)(F)F)C2)ccc1C(=O)Nc1cnn(C2CC2)c1` (stereo not shown) [Compound 129], the mortality at 1 ppm is, setting by setting: under setting [1], 100%; under setting [2], 100%.
As to `Cc1cc(C2=NOC(c3cc(Cl)c(F)c(Cl)c3)(C(F)(F)F)C2)ccc1C(=O)Nc1cnn(C)c1` (stereo not shown) [Compound 124], the mortality at 1 ppm is, setting by setting: under setting [1], 80 to 90%; under setting [2], 100%.
Turning to `CCCC(=O)n1cc(NC(=O)c2ccc(C3=NOC(c4cc(Cl)cc(Cl)c4)(C(F)(F)F)C3)cc2C)cn1` (stereo not shown) [Compound 60], under setting [2], the mortality at 1 ppm is 50 to 70%.
Regarding `CC(=O)n1cc(NC(=O)c2ccc(C3=NOC(c4cc(Cl)c(F)c(Cl)c4)(C(F)(F)F)C3)cc2C)cn1` (stereo not shown) [Compound 140], under setting [2], the mortality at 1 ppm was in the range of 50 to 70%.
As for `Cc1cc(C2=NOC(c3cc(Cl)c(F)c(Cl)c3)(C(F)(F)F)C2)ccc1C(=O)Nc1c(C)nn(C(C)C)c1C` (stereo not shown) [Compound 162], the mortality at 1 ppm is 50 to 70% under setting [1] and 100% under setting [2].
The like results for `Cc1cc(C2=NOC(c3cc(Cl)c(F)c(Cl)c3)(C(F)(F)F)C2)ccc1C(=O)Nc1cnn(C2CCC2)c1` (stereo not shown) [Compound 130] were, in that order, 90 to 100% and 100%.
